Values of other authors in patent US20210154335A1, “DYE AGGREGATES-CONTAINING NANOPARTICLES AND USES THEREOF” (BOARD OF REGENTS, THE UNIVERSITY OF TEXAS SYSTEM, priority 2019, published 2021).

Details: in vivo

blood circulation half-life: 2 to 4 min
SMILES: CC1(C)C(/C=C/C=C/C=C/C=C2\N(CCCCS(=O)(=O)O)c3ccc4ccccc4c3C2(C)C)=[N+](CCCCS(=O)(=O)[O-])c2ccc3ccccc3c21 [ICG, indocyanine green]
